These results are taken from ChEMBL document CHEMBL1201862, “PubChem BioAssay data set” (2004).

Structures can show the parent of a compound that is named as a salt. Activity calls are given as the source filed them. A value given as a limit tells only on which side of the number the result lay.

Experiment [1] is described as follows: Luminescence Cell-Based Dose Confirmation to Identify Activators of 5'UTR Stem-Loop Driven Alpha-Synuclein mRNA Translation in H4 Neuroglioblastoma Cells. [Related pubchem assays: 1829 (Project Summary), 1814 (Primary HTS)]. In kind it is functional.
The target of experiment [2] is Casein kinase II subunit alpha (Homo sapiens, UniProt P68400). In kind it is functional.
Casein kinase II subunit alpha, sequence (P68400 whole entry): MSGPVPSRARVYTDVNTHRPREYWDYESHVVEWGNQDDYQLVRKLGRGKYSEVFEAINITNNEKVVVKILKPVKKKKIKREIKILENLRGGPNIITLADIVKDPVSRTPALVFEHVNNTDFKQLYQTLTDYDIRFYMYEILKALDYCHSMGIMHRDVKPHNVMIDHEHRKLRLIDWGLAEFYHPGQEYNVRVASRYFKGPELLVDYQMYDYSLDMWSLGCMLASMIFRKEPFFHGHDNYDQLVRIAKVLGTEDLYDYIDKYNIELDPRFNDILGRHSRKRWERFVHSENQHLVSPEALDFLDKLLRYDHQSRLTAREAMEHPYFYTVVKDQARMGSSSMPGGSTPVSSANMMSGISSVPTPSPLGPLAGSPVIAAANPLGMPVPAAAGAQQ
Experiment [3] addresses Tyrosine-protein kinase FRK (Homo sapiens, UniProt P42685). It counts as functional.
The next experiment concerns the target Misshapen-like kinase 1 (Homo sapiens, UniProt Q8N4C8). In kind it is functional.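 Further: kinome panel screen with MINK as the panel member.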
Experiment [4] deals with Serine/threonine-protein kinase D3 (Homo sapiens, UniProt O94806). In kind it is functional.
Serine/threonine-protein kinase D3, sequence (O94806 whole entry): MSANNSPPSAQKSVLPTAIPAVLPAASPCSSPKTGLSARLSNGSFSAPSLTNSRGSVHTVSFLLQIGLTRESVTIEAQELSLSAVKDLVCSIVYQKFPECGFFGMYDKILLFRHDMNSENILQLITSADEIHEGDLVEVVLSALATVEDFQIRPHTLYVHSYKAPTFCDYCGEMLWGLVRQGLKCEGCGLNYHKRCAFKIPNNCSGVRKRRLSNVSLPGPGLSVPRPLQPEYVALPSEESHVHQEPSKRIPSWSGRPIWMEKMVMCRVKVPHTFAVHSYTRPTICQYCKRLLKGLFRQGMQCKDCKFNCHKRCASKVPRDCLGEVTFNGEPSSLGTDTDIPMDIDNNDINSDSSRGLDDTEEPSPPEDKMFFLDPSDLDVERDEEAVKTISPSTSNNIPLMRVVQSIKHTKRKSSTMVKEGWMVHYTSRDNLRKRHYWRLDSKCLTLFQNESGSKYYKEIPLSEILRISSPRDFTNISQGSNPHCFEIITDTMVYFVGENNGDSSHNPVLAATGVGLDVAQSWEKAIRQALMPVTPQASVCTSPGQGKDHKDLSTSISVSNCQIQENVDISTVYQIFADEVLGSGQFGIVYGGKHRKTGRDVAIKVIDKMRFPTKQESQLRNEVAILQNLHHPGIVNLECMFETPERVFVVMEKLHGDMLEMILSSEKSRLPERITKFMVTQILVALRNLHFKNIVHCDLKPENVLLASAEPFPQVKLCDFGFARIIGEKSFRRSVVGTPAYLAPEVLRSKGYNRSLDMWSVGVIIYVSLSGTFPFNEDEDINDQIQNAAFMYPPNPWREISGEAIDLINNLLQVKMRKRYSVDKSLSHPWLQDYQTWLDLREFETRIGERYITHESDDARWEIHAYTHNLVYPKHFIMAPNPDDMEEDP
Experiment [5] deals with Interleukin-1 receptor-associated kinase 4 (Homo sapiens, UniProt Q9NWZ3). In kind it is functional.
Experiment [6] addresses Mitogen-activated protein kinase kinase kinase 20 (Homo sapiens, UniProt Q9NYL2). It counts as functional.
Experiment [7] concerns the target Dual specificity mitogen-activated protein kinase kinase 2 (Homo sapiens, UniProt P36507). The experiment is described as follows: Navigating the Kinome. Panel member name: MAP2K2. It counts as functional.
Another experiment concerns the target Activated CDC42 kinase 1 (Homo sapiens, UniProt Q07912). Put plainly: Navigating the Kinome. Panel member name: ACK1. It counts as functional.
Experiment [8] addresses Tyrosine-protein kinase JAK2 (Homo sapiens, UniProt O60674). It counts as functional.
The target of experiment [9] is Casein kinase I isoform delta (Homo sapiens, UniProt P48730). In kind it is functional.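 Further: measured as one member (CSNK1D) of a kinome panel.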
Casein kinase I isoform delta, sequence (P48730 whole entry, canonical isoform): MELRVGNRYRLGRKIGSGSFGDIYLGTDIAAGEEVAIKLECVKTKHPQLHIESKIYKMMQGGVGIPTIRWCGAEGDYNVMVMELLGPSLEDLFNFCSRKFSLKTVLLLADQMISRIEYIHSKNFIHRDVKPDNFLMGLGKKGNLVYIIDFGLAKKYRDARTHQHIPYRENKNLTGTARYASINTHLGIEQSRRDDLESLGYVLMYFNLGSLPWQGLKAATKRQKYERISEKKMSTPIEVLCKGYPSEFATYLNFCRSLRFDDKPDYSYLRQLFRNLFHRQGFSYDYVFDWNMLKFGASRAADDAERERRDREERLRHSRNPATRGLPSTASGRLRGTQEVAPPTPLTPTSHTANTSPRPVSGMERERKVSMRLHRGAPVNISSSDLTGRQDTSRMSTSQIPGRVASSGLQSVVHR
For another experiment, the target named is Bcl-2-like protein 1 (Homo sapiens, UniProt Q07817). Put plainly: blockers of BCLXL peptide binding – biochemical, fluorescence polarization, 1536-well, selectivity assay for MCL1 inhibitor project, dose response (AID 2218). In general terms: In fluorescence polarisation assays a small probe gives low polarisation when free and higher when bound to something large.
Bcl-2-like protein 1, sequence (Q07817 whole entry): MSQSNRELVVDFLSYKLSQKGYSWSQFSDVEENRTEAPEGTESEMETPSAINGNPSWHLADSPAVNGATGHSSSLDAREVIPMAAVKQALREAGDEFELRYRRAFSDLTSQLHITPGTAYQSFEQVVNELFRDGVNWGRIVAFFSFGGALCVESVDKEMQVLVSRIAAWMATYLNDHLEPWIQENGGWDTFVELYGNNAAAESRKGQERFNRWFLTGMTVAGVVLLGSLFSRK

What is called EC50 is the concentration at which the effect is half-maximal. Read a low EC50 as greater potency. As usually defined, the Ki is a dissociation constant, usually derived from enzyme kinetics or from competition with a known ligand. What is called IC50 is the point on the concentration scale where inhibition reaches its midpoint.

Misshapen-like kinase 1, sequence (Q8N4C8 whole entry): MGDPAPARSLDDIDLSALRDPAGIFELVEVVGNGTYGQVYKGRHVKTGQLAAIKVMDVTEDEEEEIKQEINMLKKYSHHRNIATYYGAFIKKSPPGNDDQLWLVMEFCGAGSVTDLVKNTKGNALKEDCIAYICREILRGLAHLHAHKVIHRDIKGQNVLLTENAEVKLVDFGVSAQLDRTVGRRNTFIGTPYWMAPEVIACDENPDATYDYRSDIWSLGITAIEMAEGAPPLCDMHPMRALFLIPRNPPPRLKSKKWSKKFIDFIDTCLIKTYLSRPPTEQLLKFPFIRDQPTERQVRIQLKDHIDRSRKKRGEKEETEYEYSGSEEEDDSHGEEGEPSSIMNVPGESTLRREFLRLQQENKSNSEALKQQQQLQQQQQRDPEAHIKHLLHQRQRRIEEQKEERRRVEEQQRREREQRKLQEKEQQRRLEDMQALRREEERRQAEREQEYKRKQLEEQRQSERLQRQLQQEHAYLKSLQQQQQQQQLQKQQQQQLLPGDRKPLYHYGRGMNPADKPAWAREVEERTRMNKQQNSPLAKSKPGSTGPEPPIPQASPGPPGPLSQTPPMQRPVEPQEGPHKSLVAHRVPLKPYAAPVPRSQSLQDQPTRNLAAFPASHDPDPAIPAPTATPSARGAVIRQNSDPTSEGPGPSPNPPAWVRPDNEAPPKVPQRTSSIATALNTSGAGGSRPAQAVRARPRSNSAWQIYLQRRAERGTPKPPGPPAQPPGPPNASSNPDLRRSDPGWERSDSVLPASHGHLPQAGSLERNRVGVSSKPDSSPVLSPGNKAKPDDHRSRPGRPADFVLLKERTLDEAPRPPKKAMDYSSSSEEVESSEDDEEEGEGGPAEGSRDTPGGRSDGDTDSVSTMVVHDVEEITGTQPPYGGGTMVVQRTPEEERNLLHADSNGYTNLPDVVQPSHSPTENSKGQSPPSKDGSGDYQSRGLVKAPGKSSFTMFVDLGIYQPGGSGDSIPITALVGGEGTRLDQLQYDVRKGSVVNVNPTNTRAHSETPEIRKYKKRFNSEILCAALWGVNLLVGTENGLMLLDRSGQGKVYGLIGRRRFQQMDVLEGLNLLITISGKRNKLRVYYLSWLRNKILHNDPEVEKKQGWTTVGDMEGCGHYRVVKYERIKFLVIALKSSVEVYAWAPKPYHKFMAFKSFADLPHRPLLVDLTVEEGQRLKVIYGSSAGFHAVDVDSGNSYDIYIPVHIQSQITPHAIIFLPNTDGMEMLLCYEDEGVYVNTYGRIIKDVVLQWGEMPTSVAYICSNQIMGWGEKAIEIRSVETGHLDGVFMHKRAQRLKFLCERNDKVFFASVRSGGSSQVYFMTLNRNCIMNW
Activated CDC42 kinase 1, sequence (Q07912 whole entry): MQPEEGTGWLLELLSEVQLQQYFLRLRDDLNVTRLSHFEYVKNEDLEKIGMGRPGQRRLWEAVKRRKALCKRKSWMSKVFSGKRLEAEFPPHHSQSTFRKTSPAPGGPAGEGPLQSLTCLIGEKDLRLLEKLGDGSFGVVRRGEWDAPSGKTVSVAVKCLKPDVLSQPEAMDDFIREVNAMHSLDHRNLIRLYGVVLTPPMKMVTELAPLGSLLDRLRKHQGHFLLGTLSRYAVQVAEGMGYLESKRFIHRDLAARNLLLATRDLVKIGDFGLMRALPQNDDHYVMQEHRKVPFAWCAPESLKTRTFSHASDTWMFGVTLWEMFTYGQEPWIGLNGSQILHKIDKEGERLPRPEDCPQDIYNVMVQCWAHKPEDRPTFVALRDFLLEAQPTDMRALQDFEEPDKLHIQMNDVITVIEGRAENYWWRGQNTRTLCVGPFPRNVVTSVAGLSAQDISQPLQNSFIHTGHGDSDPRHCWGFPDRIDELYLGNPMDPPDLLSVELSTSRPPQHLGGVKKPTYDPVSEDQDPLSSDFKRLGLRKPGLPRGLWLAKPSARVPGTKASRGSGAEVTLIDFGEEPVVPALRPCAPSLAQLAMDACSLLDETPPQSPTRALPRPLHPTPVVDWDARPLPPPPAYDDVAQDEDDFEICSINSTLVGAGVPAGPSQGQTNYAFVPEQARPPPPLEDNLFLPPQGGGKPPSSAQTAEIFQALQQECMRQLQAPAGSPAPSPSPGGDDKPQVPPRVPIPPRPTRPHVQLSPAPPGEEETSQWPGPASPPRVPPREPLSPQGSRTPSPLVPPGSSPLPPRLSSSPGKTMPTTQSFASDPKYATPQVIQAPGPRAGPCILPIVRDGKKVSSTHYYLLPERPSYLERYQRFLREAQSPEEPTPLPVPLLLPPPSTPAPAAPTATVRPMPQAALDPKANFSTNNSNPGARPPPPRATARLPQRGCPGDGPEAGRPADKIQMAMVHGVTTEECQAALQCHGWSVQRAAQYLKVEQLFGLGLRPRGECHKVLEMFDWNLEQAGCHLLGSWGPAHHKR
Tyrosine-protein kinase FRK, sequence (P42685 whole entry): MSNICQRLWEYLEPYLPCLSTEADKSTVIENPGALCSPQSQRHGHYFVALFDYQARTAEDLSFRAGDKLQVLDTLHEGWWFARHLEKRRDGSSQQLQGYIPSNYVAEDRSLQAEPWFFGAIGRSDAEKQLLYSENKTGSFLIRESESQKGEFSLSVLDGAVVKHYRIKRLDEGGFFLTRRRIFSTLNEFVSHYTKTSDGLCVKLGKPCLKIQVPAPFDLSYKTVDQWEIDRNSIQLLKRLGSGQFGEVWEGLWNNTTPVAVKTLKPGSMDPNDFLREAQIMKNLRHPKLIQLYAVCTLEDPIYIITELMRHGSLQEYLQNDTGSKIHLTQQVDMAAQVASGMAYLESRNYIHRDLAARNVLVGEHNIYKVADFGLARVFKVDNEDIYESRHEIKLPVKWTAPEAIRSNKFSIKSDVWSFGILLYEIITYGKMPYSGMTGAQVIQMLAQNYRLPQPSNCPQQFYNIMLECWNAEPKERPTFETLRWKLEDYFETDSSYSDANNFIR

As to `CCN1/C(=C\c2ccc3ccccc3[n+]2CC)Sc2cc(C)ccc21`, the EC50 in [1] was > 12 µM (not active).

For `CN1CCN(c2nc(C3=C(c4c[nH]c5ccccc45)C(=O)NC3=O)c3ccccc3n2)CC1` [SOTRASTAURIN], the Ki in [2] was > 6.31 µM (inactive); in [3], > 2.51 µM (inactive); on Misshapen-like kinase 1, 0.00794 µM (active); in [4] it was > 3.16 µM (inactive); in experiment [5], > 10 µM (inactive); in [6], > 7.94 µM (inactive). The Ki in experiment [7] is > 3.98 µM (inactive); on Activated CDC42 kinase 1, > 3.98 µM (inactive); in experiment [8], > 2.51 µM (inactive); in experiment [9] it was > 7.94 µM (inactive).

For the molecule `CC[C@@H](CO)NC(=O)[C@@H]1C=C2c3cccc4c3c(cn4C)C[C@H]2N(C)C1` [METHYSERGIDE MALEATE], the IC50 on Bcl-2-like protein 1 is recorded as 22.6 µM (not active).
